Article PMC12010006, “Subnanomolar MAS-related G protein-coupled receptor-X2/B2 antagonists with efficacy in human mast cells and disease models” (Signal Transduction and Targeted Therapy, 2025)
Like-named read-outs stand apart in the source and are kept apart here.

Legend:
[1] = Metabolic stability in human liver microsomes; type: in vitro ADME; details: both sexes, human liver microsomes 0.25 mg/ml, compound 1 µM; for half-life at 1 µM: human, liver microsomes, read-out: T1/2 (half-life); for microsomal CLint at 1 µM: read-out: Clint (intrinsic clearance)
[2] = molecular target: T1, MRGPRX2 (Homo sapiens, UniProt Q96LB1); experiment: β-arrestin assay (agonist mode), β-arrestin CHO cells recombinantly expressing MRGPRX2; type: cell-based; details: for EC50: agonist test, read-out: β-Arrestin assay EC50 ± SEM; for β-Arrestin assay % activation: normalized to CST-14 (EC80 5,000 nM)
T1 sequence (Q96LB1 1-330): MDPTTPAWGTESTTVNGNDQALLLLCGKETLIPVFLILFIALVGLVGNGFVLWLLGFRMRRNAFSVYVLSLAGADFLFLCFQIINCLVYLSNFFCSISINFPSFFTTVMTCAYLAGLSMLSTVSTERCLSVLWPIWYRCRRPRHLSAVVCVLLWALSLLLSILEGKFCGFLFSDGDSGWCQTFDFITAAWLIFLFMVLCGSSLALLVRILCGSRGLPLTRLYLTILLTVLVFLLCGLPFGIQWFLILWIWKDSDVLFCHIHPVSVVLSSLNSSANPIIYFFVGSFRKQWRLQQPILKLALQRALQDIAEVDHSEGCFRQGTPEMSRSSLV
Description: Eurofins DiscoverX (Fremont, CA, USA) provided engineered Chinese hamster ovary (CHO) cells stably expressing β-arrestin-2 fused to a large β-galactosidase fragment (enzyme acceptor, EA). These CHO-K1-β-arrestin-2 cells were commercially available (93-0164). CHO-K1-β-arrestin-2 cells that additionally expressed MRGPRX1, -2, or -4 fused to the fragment ProLink™ (PK) were also purchased from the same company (93-0919C2, 93-0309C2, and 3-0541C2A, respectively). CHO cells expressing MRGPRX3 were generated as previously […].[31] The cells were grown in F-12 Ham Nutrient Mixture (Life Technologies) supplemented with 10% FBS, 100 U/mL of penicillin, 100 µg/mL of streptomycin (PAN-Biotech), 300 μg/mL of hygromycin B (PAN-Biotech), and 800 μg/mL of gentamicin (PAN-Biotech) at 37 °C and 5% CO2.).
The assays were carried out as previously described.[22] […] After 30 min of incubation at 37 °C and 5% CO2, Cortistatin-14 (CST-14, Bioscience, Bristol, United Kingdom) or another MRGPRX2 agonist that served as a standard agonist was added, and the mixture was incubated for 90 min at 37 °C and 5% CO2. Next, a detection reagent (50 µL, DiscoverX) was added, and the mixture was incubated at room temperature in the dark for 60 min. Chemiluminescence was measured on a Mithras LB 940 plate reader (Berthold Technologies, Bad Wildbad, Germany). The results represent means ± SEM of three to five independent experiments, each in duplicates.
^d β-Arrestin CHO cells recombinantly expressing MRGPRX2
^f Percentage of activation of normalized to CST-14 (EC80 5,000 nM)

[3] = molecular target: T1, MRGPRX2; experiment: Ca2+ mobilization assay, LN229 cells overexpressing MRGPRX2; type: cell-based; parameters: expressed in transfected cells; host or cells: LN229 human glioblastoma cells; plasmid pLXSN-MRGPRX2 (Addgene #213960); details: for Ki: versus CST-14 (EC80 800 nM, EC50 452 nM), Cheng-Prusoff, read-out: Ca2+ assay Ki ± SEM; for MRGPRX2 antagonistic potency in Ca2+ assay, in words: versus CST-14
Experimental: Glioblastoma LN229-MRGPRX2 stably expressing MRGPRX2 (produced by retroviral transfection) were seeded into black sterile 96-well microplates at a density of 5 × 10^4 cells/well in 200 µL of DMEM/F12-Nut Mix medium, supplemented with 10% FCS, 100 U/mL of penicillin 100 µg/mL of streptomycin, and 200 µg/mL of G418 and incubated for 18–22 h.
The next day Fluo-4 AM Solution (1 mM) (Thermo Fisher Scientific) was prepared and used to prepare cell loading dye solution consisting of 4970 µL of Hank’s Buffered Saline Solution (HBSS) buffer, 15 µL of 20% Pluronic-F and 15 µL of 1 mM Fluo-4 AM. Next, the cell medium was removed and exchanged for 40 µL of dye solution per well (final concentration of Fluo-4 AM: 3 µM). The cell plate was incubated for 60 min in the dark at room temperature, then the dye solution was removed and replaced by 189 µL HBSS. Subsequently, 1 µL of antagonist diluted in DMSO was added and incubated for 30 min at room temperature and in the dark (final DMSO concentration 0.5%, v/v). CST-14 or another agonist prepared in HBSS as well as carbachol (final concentration 100 µM) were pipetted (10 µL) using a FlexStation® 3 Multi-Mode Microplate Reader. For the determination of baseline fluorescence, HBSS buffer containing solvent of the investigated compound was used. Fluorescence was measured for 120 intervals of 1 s (number of flashes: 10) at a wavelength of 525 nm (excitation 485 nm) using the SoftMax® Pro5.1 Microplate Data Acquisition & Analysis Software. Three independent experiments were performed in duplicates. Measurements are provided in relative fluorescence units and normalized to the maximal effect of CST-14.

[4] = molecular target: T1, MRGPRX2; experiment: β-arrestin recruitment assay (antagonist mode), β-arrestin-CHO cells recombinantly expressing MRGPRX2; type: cell-based; parameters: expressed in transfected cells; details: versus CST-14 (EC80 1,000 nM, EC50 483 nM); Cheng-Prusoff; read-out: β-Arrestin assay Ki ± SEM
[5] = MTT cytotoxicity assay, 1321N1 astrocytoma cells; type: cell-based; details: human; for cytotoxicity at 72 h, 10000 nM: up to 10,000 nM, read-out: Cytotoxicity % effect
Experimental: Potential cytotoxicity of 24 and its similarly potent analogs 27 and 30 was assessed in 3-(4,5-dimethylthiazol-2-yl)-2,5-diphenyl-2H-tetrazolium bromide (MTT) assays performed on human 1321N1 astrocytoma cells (Supplementary Table S3). This cell line was chosen since it is well-established for the screening of cytotoxic drugs, making it a reliable choice for assessing cytotoxicity.[46]
For the experiment, 1321N1 astrocytoma cells were seeded at a density of 1 × 10^5 cells/well in 180 µL of cell medium into transparent 96-well plates, whereby the outer wells only contained buffer (to avoid an edge effect). Cells were incubated for 24 h at 37°C, 5% CO2. Compound dilutions were prepared in DMSO. […] Subsequently, 20 µL of these compound dilutions were added to each well so that astrocytoma cells were incubated with varying concentrations of MRGPRX2 antagonists (0.01 µM–10 µM) at 37° C, 5% CO2. 5-Fluoruracil, a cytostatic drug, served as a positive control. Medium-containing DMSO in the absence of a compound served as a negative control. After 71 h, […] of MTT solution (5 mg/mL, prepared in Millipore water) was added to each well (final concentration 0.5 mg/mL) and cells were incubated again for another hour. Subsequently, the medium was removed, and cells were lyzed by adding 100 µL of DMSO per well. In order to dissolve the produced formazan dye crystals, plates were incubated for 2 min on a rotary shaker (150 rpm). Afterward, the UV absorbance at 570 nm was measured by using SoftMax® Pro5.1 Microplate Data Acquisition & Analysis Software (Molecular Devices, Sunnyvale, CA, USA). The UV absorbance at 690 nm was measured directly afterward to eliminate the background absorbance of residual medium and cell components. The values of the measured UV absorbance at 690 nm were subtracted from the values obtained by the measurement of UV absorbance at 570 nm. Three to four independent experiments were performed, each in triplicate.

[6] = molecular target: T1, MRGPRX2; parameters: expressed in transfected cells; host or cells: LN229 human glioblastoma cells; plasmid pLXSN-MRGPRX2 (Addgene #213960); method as in earlier work; details: read-out: EC50 as MRGPRX2 agonist; cited from earlier work

| SMILES | half-life at 1 µM [1] | microsomal CLint at 1 µM [1] | EC50 [2] | β-Arrestin assay % activation [2] | fold less potent than 24 [3] | Ki [3] | Ki [4] | CC50 at 72 h [5] | cytotoxicity at 72 h, 10000 nM [5] | EC50 [6] | MRGPRX2 antagonistic potency in Ca2+ assay, in words [3] | fold improved potency compared to 27 [3] |
| --- | --- | --- | --- | --- | --- | --- | --- | --- | --- | --- | --- | --- |
| CCc1c(C(C)C)[nH]c2nc3cc(C)c(C)cc3n2c1=O [Compound 27] | 10.6 min | 131 µL/min/mg | > 10000 nM | 0% | 5 fold | 6.64 nM | 28.5 ± 23.9 nM | > 10000 nM | 28% |  |  |  |
| CCc1c(C2CC2)[nH]c2nc3ccccc3n2c1=O [Compound 14] |  |  | > 10000 nM | 0% |  | 69.7 nM | 384 ± 214 nM |  |  |  |  |  |
| CCc1c(C(C)(C)C)[nH]c2nc3ccccc3n2c1=O [Compound 13] |  |  | > 10000 nM | -1% |  | 8.44 nM | 113 ± 42.3 nM |  |  |  |  |  |
| CCc1c(CC(C)C)[nH]c2nc3ccccc3n2c1=O [Compound 12] |  |  | > 10000 nM | -2% |  | 18.5 ± 13.7 nM | 152 ± 33.8 nM |  |  |  |  |  |
| CN(C)[C@@H]1CCN(c2cc(-c3ccccc3)nc3ccnn23)C1 [ZINC-3573] |  |  |  |  |  |  |  |  |  | 760 nM |  |  |
| CCc1c(C(C)C)[nH]c2nc3cc(F)ccc3n2c1=O [Compound 30, 3-ethyl-8-fluoro-2-isopropylbenzo[4,5]imidazo[1,2-a]pyrimidin-4(1H)-one] | 14 min | 100 µL/min/mg | > 10000 nM | -3% |  | 0.455 nM | 5.89 ± 2.86 nM | > 10000 nM | 30% |  | subnanomolar potencies |  |
| CCc1c(C)[nH]c2nc3ccccc3n2c1=O [Compound 2] |  |  | > 10000 nM | -2% |  | 238 nM | 1050 nM |  |  |  |  |  |
| CCc1c(C(C)C)[nH]c2nc3nc(F)ccc3n2c1=O [Compound 33] | 48.8 min | 28.4 µL/min/mg |  |  |  | 906 ± 137 nM | 1610 nM |  |  |  | reduced potency dramatically |  |
| CCc1c(-c2ccccc2)[nH]c2nc3ccccc3n2c1=O [Compound 15] |  |  | > 10000 nM | 0% |  | 364 nM | 175 ± 49.5 nM |  |  |  |  |  |
| CCCc1[nH]c2nc3ccccc3n2c(=O)c1CC [Compound 8] |  |  | > 10000 nM | -1% |  | 25.8 nM | 90.5 ± 7.03 nM |  |  |  |  |  |
| CCc1c(C(C)C)[nH]c2nc3ccc(C)cc3n2c1=O [Compound 28] |  |  | > 10000 nM | -3% |  | 0.322 nM | 47.8 ± 9.77 nM |  |  |  | subnanomolar potencies | 20 fold |
| CCc1c(C(C)C)[nH]c2nc3ncc(F)cc3n2c1=O [Compound 32] |  |  | > 10000 nM | -3% |  | 931 ± 685 nM | 824 ± 553 nM |  |  |  | reduced potency dramatically |  |
| CCCc1c(C(C)C)[nH]c2nc3ccccc3n2c1=O [Compound 11] |  |  | > 10000 nM | 1% |  | 43.3 ± 24.5 nM | 166 ± 69.7 nM |  |  |  |  |  |
